Test results published in publication PMC11313180 (International Journal of Molecular Sciences, 2024).

Columns and labels:
MCF-7 [1] = experiment: Long-term (10 days) live/dead proliferation assay, calcein AM and Hoechst 33342, MCF-7; type: cell-based, human; conditions: 1 µM exemestane, 1 mM (R)-α-lipoic acid
Method: (§1) Cells were seeded on day one in 96-well plates. […] Then, cells were stained with calcein AM (Millipore Corporation, Billerica, MA, USA) and Hoechst 33342 (Tocris Bioscience, Bristol, UK) for 30 min and fluorescence images monitored by Leica DMi8 Thunder Imager (Leica Microsystems CMS GmbH, Wetzlar, Germany). Five images per well were monitored randomly. Calcein AM- and Hoechst 33342-stained area of the images (i.e., live proliferating cells) were evaluated.

T47D [2] = experiment: Long-term (10 days) live/dead proliferation assay, calcein AM and Hoechst 33342, T47D; type: cell-based, human; conditions: 1 µM exemestane, 1 mM (R)-α-lipoic acid
Method: as §1

MCF-7 [3] = experiment: Immunoblotting, MCF-7; type: cell-based, human; conditions: 48 h
Method: (§2) A quantity of 20 or 40 µg of total protein as well as, from PageRuler Prestained Protein Ladder, 10–180 kDA (Thermo Scientific, Wesel, Germany), were resolved by SDS-Page (12% polyacrylamide gel) and transferred to polyvinylidene fluoride membrane (Millipore Corporation, Billerica, MA, USA). Blots were incubated with primary antibodies against acetylated a -tubulin (Cat. No. sc-23950), a -tubulin (Cat. No. sc-8035) (Santa Cruz Biotechnology, Heidelberg, Germany), acetyl histone h3 (Cat. No. 39140) and histone H3 (Cat. No. NB100-1669), ß-actine (Cat. No. sc-47778), p21 (AF1047), c-myk (Cat. No. MAB3696), APAF1 (Cat. No. MAB868), BIM (Cat. No. NBP1-76936), FOXO1 (Cat. No. C29H4), BCL-2 (Cat. No. AF810), and survivin (Cat. No. AF886). After another one-hour incubation with the appropriate HRP-conjugated secondary antibody, proteins were visualized by Intas Imager (Intas, Göttingen, Germany) using luminol reagent (Santa Cruz Biotechnology, Heidelberg, Germany).

T47D [4] = experiment: Immunoblotting, T47D; type: cell-based, human; conditions: 48 h
Method: as §2

MCF-7 [5] = experiment: Mitochondrial potential assay (TMRE), MCF-7; type: cell-based, human; conditions: 1 mM; 2 h, 6 h, 24 h, 48 h
Method: The analysis of mitochondrial potential was carried out as previously described with minor modifications concerning fluorescence measurement. […] After an incubation time of 2 h, 6 h, 24 h, and 48 h, medium was removed, and cells were washed with PBS and then stained for 30 min at 37 °C with 50 µL staining reagent containing 500 nM tetramethyl rhodamine ethylester as perchlorate (TMRE, BIOTREND chemicals GmbH, Cologne) and Hoechst 33342 (5 µg/mL). A quantity of 20 µM CCCP (carbonyl cyanide-m-chlorophenylhydrazone, Sigma-Aldrich, München, Germany) served as control for mitochondrial potential breakdown. Fluorescence was measured by Leica DMi8 Thunder Imager (Leica Microsystems CMS GmbH, Wetzlar, Germany).

HDAC2 [6] = conditions: obtained by fitting Lechner et al. source data to a sigmoidal concentration–effect model; ref [21]; read-out: IC50 HDAC 2, Lechner et al.; cited from earlier work
HDAC6 = conditions: obtained by fitting Lechner et al. source data to a sigmoidal concentration–effect model; ref [21]; read-out: IC50 HDAC 6, Lechner et al.; cited from earlier work
HDAC2 [7] = molecular target: HDAC2 (Homo sapiens, UniProt Q92769); experiment: Enzyme HDAC inhibition assay, HDAC2; conditions: read-out: IC50 HDAC 2; IC50 ± SEM; three experiments in duplicates
From the text: All human recombinant enzymes were purchased from Reaction Biology Corp. (Malvern, PA, USA).

[8] = system: caspase 3/7 in MCF-7 cells; experiment: Caspase 3/7 activation assay, MCF-7; type: cell-based, human; conditions: 24 h; 1 µM exemestane, 0.5 mM or 1 mM (R)-α-lipoic acid
Method: (§3) To analyze the compound-induced activation of capases 3 and 7, the CellEvent caspase 3/7 green detection reagent (Thermo Scientific, Wesel, Germany) was used according to the manufacturer’s instructions. […] After 24 h incubation, medium was removed, and cells were stained with 50 µL of CellEvent caspase 3/7 green detection reagent (2 µM in PBS supplemented with 5% heat-inactivated FBS). Cells were incubated for 30 min at 37 °C in a humidified incubator before imaging by using the Thermo Fisher ArrayScan XTI high content screening (HCS) system with a 10× magnification (Thermo Scientific). Hoechst 33342 was added for nuclei staining.

[9] = system: caspase 3/7 in T47D cells; experiment: Caspase 3/7 activation assay, T47D; type: cell-based, human; conditions: 24 h; 1 µM exemestane, 0.5 mM or 1 mM (R)-α-lipoic acid
Method: as §3

HDAC = conditions: up to 500 µM (max. concentration tested); ref [21]; cited from earlier work
[10] = 1 mM (R)-α-lipoic acid, 1 µM exemestane

Sequence of HDAC2 (Homo sapiens, UniProt Q92769) (Q92769 whole entry): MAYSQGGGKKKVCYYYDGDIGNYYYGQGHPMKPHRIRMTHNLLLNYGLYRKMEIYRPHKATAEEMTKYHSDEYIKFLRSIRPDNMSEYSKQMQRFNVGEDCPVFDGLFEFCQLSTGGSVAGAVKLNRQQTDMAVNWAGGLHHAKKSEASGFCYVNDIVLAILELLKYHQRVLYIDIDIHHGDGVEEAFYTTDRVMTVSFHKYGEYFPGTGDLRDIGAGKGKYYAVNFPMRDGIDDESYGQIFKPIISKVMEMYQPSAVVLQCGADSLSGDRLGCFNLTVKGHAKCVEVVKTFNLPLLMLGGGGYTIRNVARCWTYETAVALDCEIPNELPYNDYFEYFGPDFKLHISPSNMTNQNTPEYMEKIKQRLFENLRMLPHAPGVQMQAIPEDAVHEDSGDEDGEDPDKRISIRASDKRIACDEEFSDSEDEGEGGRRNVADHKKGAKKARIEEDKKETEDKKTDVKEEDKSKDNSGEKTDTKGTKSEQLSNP

Compound | proliferation and doubling time over 10 days, MCF-7 (MCF-7 [1]) | proliferation and doubling time over 10 days, T47D (T47D [2]) | expression of APAF-1 and BIM, MCF-7 (MCF-7 [3]) | expression of FOXO1, MCF-7 (MCF-7 [3]) | acetylation of histone H3 and alpha-tubulin (western blot), MCF-7 (MCF-7 [3]; [10]) | expression of p21, MCF-7 (MCF-7 [3]; [10]) | expression of survivin and c-myk, MCF-7 (MCF-7 [3]; [10]) | expression of APAF-1 and BIM, T47D (T47D [4]) | expression of FOXO1, T47D (T47D [4]) | acetylation of histone H3 and alpha-tubulin (western blot), T47D (T47D [4]; [10]) | expression of p21, T47D (T47D [4]; [10]) | expression of survivin and c-myk, T47D (T47D [4]; [10]) | mitochondrial potential and structure (TMRE) (MCF-7 [5]) | IC50 (HDAC2 [6]) | IC50 (HDAC6) | IC50 (HDAC2 [7]) | caspase 3/7 activation, MCF-7 [8] | caspase 3/7 activation, T47D [9] | HDAC inhibitory activity (HDAC)
O=C(O)CCCC[C@@H]1CCSS1 [(R)-α-lipoic acid] | strong reduction in proliferation and thus increase in doubling time | reduced proliferation and increased doubling time strongly | upregulated | strongly upregulated | increased acetylation of histone and of alpha-tubulin | moderately upregulated | strongly downregulated | upregulated | strongly upregulated | increased acetylation of histone and of alpha-tubulin | moderately upregulated | strongly downregulated | mitochondrial fusion up to 24 h followed by mitochondrial fission and inhibition of proliferation | ~500 µM | 210 µM | 208 ± 34.9 µM | – | – | –
O=C(O)CCCC[C@H]1CCSS1 [(S)-α-lipoic acid] | – | – | – | – | – | – | – | – | – | – | – | – | – | > 500 µM | > 500 µM | 299 ± 34.6 µM | slightly lower than (R)-α-lipoic acid | slightly lower than (R)-α-lipoic acid | no HDAC inhibitory activity
